Laboratory results: US20250214932A1, “T-TYPE CALCIUM CHANNEL MODULATORS COMPRISING AN AZASPIRONONANE CORE AND METHODS OF USE THEREOF” (Praxis Precision Medicines, Inc., priority 2022, published 2025)

Target: Human Cav3.1 (Homo sapiens (Human), UniProt O43497)
Assay: Human Cav3.1 calcium channel patch clamp assay (SyncroPatch 384PE, HEK-293 natClytin/TASK1+Cav3.1 cell line)
Assay type: cell-based
Settings: patch clamp, HEK-293 natClytin/TASK1+Cav3.1 cells; class symbols; read-out: Human Cav3.1 IC50
Experimental: Pulse generation and data collection were performed with PatchController384 V1.3.0 and DataController384 V1.2.1 (Nanion Technologies). Off-line analysis was performed using Excel and Graphpad Prism (V 8.4.2) with complete data files uploaded to Dotmatics. The access resistance and apparent membrane capacitance were estimated using built-in protocols. Current was recorded in whole cell configuration from a population of cells. The cells were lifted, triturated, and resuspended at 800,000 cells/ml. The cells were allowed to recover in the cell hotel prior to experimentation. Currents were recorded at room temperature. The external solution contained the following (in mM): NaCl 80, NMDG 60, KCl 4, MgCl2 1, CaCl2 6, glucose 5 and HEPES 10 (pH=7.4, Osmolarity ˜300 mOsm). The extracellular solution was used as the wash, reference and compound delivery solution. […] The compound plate was created at 2× concentrated in the extracellular solution. The compound was diluted to 1:2 when added to the recording well. The amount of DMSO in the extracellular solution was held constant at the level used for the highest tested concentration. For the voltage clamp experiments on Cav3.1, data were sampled at 10 KHz. After establishment of the seal and the passage in the whole cell configuration, the cells were held at −120 mV. Cav3.1 current was evoked using a 100 ms step to −20 mV (to measure resting state block), followed by a 1600 ms step to −65 mV and a second 100 ms step to −20 mV (to measure voltage dependent block). The voltage protocol was applied every 15 seconds in the absence and in the presence of the compounds under investigation. […] Current amplitude (pA) was measured in the peak 1 and 2. The average of last 3 sweeps of each liquid period (vehicle, compound under investigation, full block) was calculated. Nickel-sensitive current was used to calculate the % of inhibition in the presence of the compound under investigation.
Pulse generation and data collection were performed with PatchController384 V1.3.0 and DataController384 V1.2.1 (Nanion Technologies). Off-line analysis was performed using Excel and Graphpad Prism (V 8.4.2) with complete data files uploaded to Dotmatics. The access resistance and apparent membrane capacitance were estimated using built-in protocols. Current was recorded in whole cell configuration from a population of cells.
The cells were lifted, triturated, and resuspended at 800,000 cells/ml. The cells were allowed to recover in the cell hotel prior to experimentation. Currents were recorded at room temperature. The external solution contained the following (in mM): NaCl 80, NMDG 60, KCl 4, MgCl2 1, CaCl2 6, glucose 5 and HEPES 10 (pH=7.4, Osmolarity ˜300 mOsm). The extracellular solution was used as the wash, reference and compound delivery solution.
The compound plate was created at 2× concentrated in the extracellular solution. The compound was diluted to 1:2 when added to the recording well. The amount of DMSO in the extracellular solution was held constant at the level used for the highest tested concentration. For the voltage clamp experiments on Cav3.1, data were sampled at 10 KHz. After establishment of the seal and the passage in the whole cell configuration, the cells were held at −120 mV. Cav3.1 current was evoked using a 100 ms step to −20 mV (to measure resting state block), followed by a 1600 ms step to −65 mV and a second 100 ms step to −20 mV (to measure voltage dependent block). The voltage protocol was applied every 15 seconds in the absence and in the presence of the compounds under investigation. […] Current amplitude (pA) was measured in the peak 1 and 2. The average of last 3 sweeps of each liquid period (vehicle, compound under investigation, full block) was calculated. Nickel-sensitive current was used to calculate the % of inhibition in the presence of the compound under investigation.

Human Cav3.1, sequence (O43497 whole entry): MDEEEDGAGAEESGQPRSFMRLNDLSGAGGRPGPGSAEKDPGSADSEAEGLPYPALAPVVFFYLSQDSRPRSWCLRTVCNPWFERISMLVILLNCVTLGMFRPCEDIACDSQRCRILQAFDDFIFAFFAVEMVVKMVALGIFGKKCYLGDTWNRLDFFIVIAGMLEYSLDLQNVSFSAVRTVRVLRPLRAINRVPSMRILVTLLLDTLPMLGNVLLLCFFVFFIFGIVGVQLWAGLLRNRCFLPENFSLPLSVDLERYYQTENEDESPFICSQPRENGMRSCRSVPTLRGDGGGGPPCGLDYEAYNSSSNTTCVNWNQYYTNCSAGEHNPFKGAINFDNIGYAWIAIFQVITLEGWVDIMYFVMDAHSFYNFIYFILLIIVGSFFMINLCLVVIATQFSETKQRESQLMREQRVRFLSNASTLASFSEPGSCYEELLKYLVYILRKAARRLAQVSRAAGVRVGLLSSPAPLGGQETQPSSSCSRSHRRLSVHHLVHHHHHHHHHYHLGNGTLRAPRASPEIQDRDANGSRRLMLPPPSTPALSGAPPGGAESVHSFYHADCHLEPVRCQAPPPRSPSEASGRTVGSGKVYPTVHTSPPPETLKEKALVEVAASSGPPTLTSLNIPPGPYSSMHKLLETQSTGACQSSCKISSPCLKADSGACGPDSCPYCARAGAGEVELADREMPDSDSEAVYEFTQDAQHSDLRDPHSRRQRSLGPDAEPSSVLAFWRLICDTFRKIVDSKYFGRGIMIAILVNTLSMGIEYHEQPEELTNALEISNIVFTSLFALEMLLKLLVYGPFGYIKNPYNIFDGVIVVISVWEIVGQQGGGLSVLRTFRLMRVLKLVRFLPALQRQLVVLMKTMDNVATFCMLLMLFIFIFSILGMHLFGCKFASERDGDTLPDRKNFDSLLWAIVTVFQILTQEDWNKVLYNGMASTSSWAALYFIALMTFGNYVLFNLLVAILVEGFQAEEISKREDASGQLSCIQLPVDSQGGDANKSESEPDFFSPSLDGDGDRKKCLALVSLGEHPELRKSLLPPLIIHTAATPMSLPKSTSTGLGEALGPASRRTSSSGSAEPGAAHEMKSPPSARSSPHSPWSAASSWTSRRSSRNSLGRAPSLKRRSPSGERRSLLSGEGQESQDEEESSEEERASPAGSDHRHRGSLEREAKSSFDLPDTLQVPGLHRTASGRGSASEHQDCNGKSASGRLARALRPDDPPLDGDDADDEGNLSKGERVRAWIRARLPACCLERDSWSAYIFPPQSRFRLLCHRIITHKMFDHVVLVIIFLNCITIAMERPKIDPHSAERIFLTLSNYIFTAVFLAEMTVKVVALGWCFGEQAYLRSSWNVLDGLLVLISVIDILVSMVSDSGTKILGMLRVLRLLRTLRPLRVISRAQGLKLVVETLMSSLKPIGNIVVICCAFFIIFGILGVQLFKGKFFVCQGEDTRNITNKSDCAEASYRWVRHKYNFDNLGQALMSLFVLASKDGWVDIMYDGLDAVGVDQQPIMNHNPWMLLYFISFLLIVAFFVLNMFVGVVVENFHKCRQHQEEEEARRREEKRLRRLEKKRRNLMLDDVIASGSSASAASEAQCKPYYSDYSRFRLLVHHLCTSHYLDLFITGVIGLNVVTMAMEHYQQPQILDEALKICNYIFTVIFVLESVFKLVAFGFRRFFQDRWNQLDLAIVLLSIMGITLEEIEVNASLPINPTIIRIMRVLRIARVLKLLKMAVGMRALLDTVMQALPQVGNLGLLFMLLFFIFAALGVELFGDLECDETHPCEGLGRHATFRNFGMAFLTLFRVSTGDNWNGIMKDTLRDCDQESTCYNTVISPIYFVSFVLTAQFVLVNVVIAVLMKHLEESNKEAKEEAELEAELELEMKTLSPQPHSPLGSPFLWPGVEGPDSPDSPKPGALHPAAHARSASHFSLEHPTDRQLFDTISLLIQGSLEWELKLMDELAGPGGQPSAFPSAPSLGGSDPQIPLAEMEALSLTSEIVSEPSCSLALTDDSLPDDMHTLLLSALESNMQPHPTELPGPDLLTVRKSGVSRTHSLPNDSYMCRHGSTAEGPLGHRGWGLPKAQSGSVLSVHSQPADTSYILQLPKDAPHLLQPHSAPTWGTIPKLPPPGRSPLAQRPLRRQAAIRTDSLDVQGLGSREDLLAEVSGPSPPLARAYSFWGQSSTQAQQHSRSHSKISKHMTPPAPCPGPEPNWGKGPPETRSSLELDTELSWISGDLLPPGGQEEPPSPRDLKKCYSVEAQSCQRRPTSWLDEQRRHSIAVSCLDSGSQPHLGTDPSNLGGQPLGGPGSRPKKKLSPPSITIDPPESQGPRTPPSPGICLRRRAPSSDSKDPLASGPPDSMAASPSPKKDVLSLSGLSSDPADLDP

Structure (SMILES)	IC50
CCC(C)(C)N(C)C(=O)CN1CC2(CCC(C(=O)Nc3cc(F)cc(C(F)F)c3)CC2)C1 [Example 34]	< 1000 nM
CC(C)(C)NC(=O)CN1CC2(CCC(C(=O)Nc3cccc(Cl)c3)CC2)C1 [Example 2]	< 1000 nM
CCC(C)(C)NC(=O)CN1CC2(CCC(C(=O)Nc3cc(F)cc(Cl)c3)CC2)C1 [Example 10, N-(3-chloro-5-fluorophenyl)-2-(2-oxo-2-(tert-pentylamino)ethyl)-2-azaspiro[3.5]nonane-7-carboxamide]	< 1000 nM
CC(C)(C)NC(=O)CN1CC2(CCC(C(=O)Nc3cc(F)cc(OC(F)F)c3)CC2)C1 [Example 7]	< 1000 nM
O=C(CN1CC2(CCC(C(=O)Nc3cc(F)cc(Cl)c3)CC2)C1)NC1CCCC1 [Example 21]	< 1000 nM
O=C(Nc1cc(F)cc(Cl)c1)C1CCC2(CC1)CN(Cc1ccc(Cl)cc1)C2 [Example 11]	1000 to 10000 nM
CC(C)(C)CCN1CC2(CCC(C(=O)Nc3cc(F)cc(Cl)c3)CC2)C1 [Example 22]	< 1000 nM
COCCNC(=O)CN1CC2(CCC(C(=O)Nc3cc(F)cc(Cl)c3)CC2)C1 [Example 18]	1000 to 10000 nM
CN(C(=O)CN1CC2(CCC(C(=O)Nc3cc(F)cc(C(F)F)c3)CC2)C1)C1CCCC1 [Example 35]	< 1000 nM
CC(C)(C)NC(=O)CN1CC2(CCC(C(=O)NC34CC5CC(CC(C5)C3)C4)CC2)C1 [Example 26]	1000 to 10000 nM
CC(C)(C)NC(=O)CN1CC2(CCC(C(=O)Nc3cc(F)cc(C(F)(F)F)c3)CC2)C1 [Example 4]	< 1000 nM
CCC(C)(C)NC(=O)CN1CC2(CCC(C(=O)Nc3cc(F)cc(C(F)F)c3)CC2)C1 [Example 27]	< 1000 nM
CC1(NC(=O)CN2CC3(CCC(C(=O)Nc4cc(F)cc(C(F)F)c4)CC3)C2)CCC1 [Example 29]	< 1000 nM

Same assay, conditions: voltage dependent block (VDB); read-out: Cav3.1 (VDB) IC50

Structure (SMILES)	IC50
O=C(Nc1cc(F)cc(Cl)c1)C1CCC2(CC1)CN(CC(F)(F)C1CCCC1)C2 [Example 78]	1070 nM
CC1(OC(=O)NCCN2CC3(CCC(C(=O)Nc4cc(F)cc(Cl)c4)CC3)C2)CC1 [Example 81]	307 nM
CCC(C)(C)N(C)C(=O)CN1CC2(CCC(C(=O)Nc3cc(F)cc(C(F)F)c3)CC2)C1 [Example 34]	199 nM
O=C(CN1CC2(CCC(C(=O)Nc3cccc(Cl)c3)CC2)C1)NC1(C(F)(F)F)CCC1 [Example 105]	204 nM
O=C(CN1CC2(CCC(C(=O)Nc3ccc(F)c(C(F)(F)F)c3)CC2)C1)NC1(C(F)(F)F)CC1 [Example 126]	723 nM
CC(C)(C)NC(=O)CN1CC2(CCC(C(=O)Nc3cccc(OC(F)(F)F)c3)CC2)C1 [Example 63]	492 nM
N#CC1(CN2CC3(CCC(C(=O)Nc4cccc(Cl)c4)CC3)C2)CCC(F)(F)CC1 [Example 110]	706 nM
O=C(Nc1cc(F)cc(Cl)c1)C1CCC2(CC1)CN(CC(F)(F)C1CCCCC1)C2 [Example 74]	941 nM
O=C(Nc1cc(F)cc(C(F)F)c1)C1CCC2(CC1)CN(CC(=O)N1CCOCC1)C2 [Example 41]	846 nM
Cc1cccc(NC(=O)C2CCC3(CC2)CN(CC(=O)NC2(C(F)(F)F)CC2)C3)c1 [Example 116]	691 nM
CCC(C)(C)NC(=O)CN1CC2(CCC(C(=O)Nc3cc(F)cc(Cl)c3)CC2)C1 [Example 10, N-(3-chloro-5-fluorophenyl)-2-(2-oxo-2-(tert-pentylamino)ethyl)-2-azaspiro[3.5]nonane-7-carboxamide]	142 nM
CC(C)(C#N)CN1CC2(CCC(C(=O)Nc3cc(F)cc(Cl)c3)CC2)C1 [Example 121]	1260 nM
O=C(CN1CC2(CCC(C(=O)Nc3cc(F)cc(Cl)c3)CC2)C1)OC1CCCC1 [Example 57]	709 nM
CC(C)(C)NC(=O)CN1CC2(CCC(C(=O)Nc3cc(F)cc(OC(F)F)c3)CC2)C1 [Example 7]	118 nM
O=C(CN1CC2(CCC(C(=O)Nc3cc(F)cc(Cl)c3)CC2)C1)NC1CCCC1 [Example 21]	< 78.2 nM
CC1(C)COCCN1C(=O)CN1CC2(CCC(C(=O)Nc3cc(F)cc(C(F)F)c3)CC2)C1 [Example 44]	176 nM
O=C(Nc1cccc(Cl)c1)C1CCC2(CC1)CN(CCS(=O)(=O)c1ccccc1)C2 [Example 102]	497 nM
Cc1cc(Cl)cc(NC(=O)C2CCC3(CC2)CN(CC2(C#N)CCOCC2)C3)c1 [Example 141]	1200 nM
O=C(CN1CC2(CCC(C(=O)Nc3cccc(Cl)c3)CC2)C1)NC1(C(F)(F)F)CC1 [Example 104]	302 nM
O=C(Nc1cc(F)cc(C(F)F)c1)C1CCC2(CC1)CN(CCS(=O)(=O)c1ccccc1)C2 [Example 80]	428 nM
CC(C)(NC(=O)CN1CC2(CCC(C(=O)Nc3cccc(OC(F)F)c3)CC2)C1)C(F)(F)F [Example 69]	235 nM

Structure (SMILES)	IC50
CC(C)(C)S(=O)(=O)CCN1CC2(CCC(C(=O)Nc3cccc(Cl)c3)CC2)C1 [Example 106]	739 nM
O=C(CN1CC2(CCC(C(=O)Nc3cccc(OC(F)F)c3)CC2)C1)NC1(C(F)(F)F)CCC1 [Example 109]	231 nM
O=C(CN1CC2(CCC(C(=O)NC34CCC(CC3)CC4)CC2)C1)NC1(C(F)(F)F)CC1 [Example 148]	357 nM
N#CC1(CN2CC3(CCC(C(=O)Nc4cc(F)cc(C(F)F)c4)CC3)C2)CCC(F)(F)CC1 [Example 99]	537 nM
O=C(Nc1cc(F)cc(C(F)F)c1)C1CCC2(CC1)CN(CC(F)(F)C1CCCCC1)C2 [Example 92]	905 nM
COc1cc(F)cc(NC(=O)C2CCC3(CC2)CN(CCS(=O)(=O)C(C)(C)C)C3)c1 [Example 88]	1010 nM
CN(C(=O)CN1CC2(CCC(C(=O)Nc3cc(F)cc(C(F)F)c3)CC2)C1)C1CCCC1 [Example 35]	320 nM
N#CC1(CN2CC3(CCC(C(=O)Nc4cc(F)cc(C(F)F)c4)CC3)C2)CC1 [Example 134]	1500 nM
O=C(CN1CC2(CCC(CNC(=O)c3cc(F)cc(Cl)c3)CC2)C1)NC1(C(F)(F)F)CC1 [Example 143]	373 nM
CC1(OC(=O)CN2CC3(CCC(C(=O)Nc4cc(F)cc(Cl)c4)CC3)C2)CC1 [Example 64]	617 nM
O=C(CN1CC2(CCC(C(=O)NC34CC5CC(CC(C5)C3)C4)CC2)C1)NC1(C(F)(F)F)CC1 [Example 151]	404 nM
CC(C)(C)NC(=O)CN1CC2(CCC(C(=O)Nc3cc(F)cc(C(F)(F)F)c3)CC2)C1 [Example 4]	254 nM
CCC(C)(C)NC(=O)CN1CC2(CCC(C(=O)Nc3cc(F)cc(C(F)F)c3)CC2)C1 [Example 27]	182 nM
CC(C)(C)S(=O)(=O)CCN1CC2(CCC(C(=O)Nc3cc(F)cc(C(F)F)c3)CC2)C1 [Example 87]	855 nM
N#CC1(CN2CC3(CCC(C(=O)Nc4cc(Cl)cc(OC(F)F)c4)CC3)C2)CC1 [Example 137]	1260 nM
CC1(NC(=O)CN2CC3(CCC(C(=O)Nc4cc(F)cc(C(F)F)c4)CC3)C2)CCC1 [Example 29]	102 nM
N#CC1(CN2CC3(CCC(C(=O)Nc4cc(F)cc(Cl)c4)CC3)C2)CCOC1 (centres unmarked) [Example 142]	2230 nM
Cc1cc(F)cc(NC(=O)C2CCC3(CC2)CN(CC(=O)NC2(C(F)(F)F)CC2)C3)c1 [Example 117]	221 nM
CN(C(=O)CN1CC2(CCC(C(=O)Nc3cc(F)cc(C(F)F)c3)CC2)C1)C1(C)CCC1 [Example 40]	338 nM
O=C(CN1CC2(CCC(C(=O)Nc3ccc(F)c(OC(F)F)c3)CC2)C1)NC1(C(F)(F)F)CC1 [Example 124]	149 nM
CC1(C)CCC(=O)N1CCN1CC2(CCC(C(=O)Nc3cc(F)cc(C(F)F)c3)CC2)C1 [Example 71]	588 nM

System: absence seizures
Assay: not given
Settings: patients treated with either of these drugs; cited from earlier work

Structure (SMILES)	intolerable side effects, patients affected
CCCC(CCC)C(=O)O [valproate]	24%
